# What was measured:
# [1] = target: T1, bHLHZip domain of human c-MYC (353–437) (Homo sapiens, UniProt P01106); experiment: Surface plasmon resonance binding to bHLHZip of c-MYC; conditions: SPR, 25°C, steady state, mean ± SD
# T1 construct: N-terminally His-tagged bHLHZip c-MYC (353–437) and bHLHZip MYCN (380–464) proteins were over-expressed in E. coli BL21 (DE3); made in house; host or cells: E. coli BL21 (DE3)
# Protocol: (§1) For all SPR binding measurements the compounds were injected at increasing concentrations.
# (§2) In order to determine the affinity of the compounds to c-MYC and MYCN, the response for each small molecule was plotted against the analyte (compound) concentration. The KD was defined as the concentration of analyte at 50% of the experimental maximal Response (Rmax). Approximate KD-values could be determined for all compounds except for #764. […] In summary, all active c-MYC inhibitors tested were also found to bind directly to MYCN.
# N-terminally His-tagged bHLHZip c-MYC (353–437) and bHLHZip MYCN (380–464) proteins were over-expressed in E. coli BL21 (DE3) bacteria (Stratagene) at 37°C in LB media with kanamycin. Cultures were induced with Isopropyl β-D-1-thiogalactopyranoside (0,1 mg/ml) at an OD of 0.6 and harvested after 4 hours. […] Protein concentrations were determined by SDS-page comparing purified proteins to a standard curve of BSA loaded on the gel.
# (§3) Surface Plasmon Resonance (SPR) experiments were performed using a Biacore T200 (GE Healthcare) instrument at 25°C. […] The obtained data was analyzed by the Biacore T200 Evaluation Software 2.0 (GE Healthcare). […]
# [2] = target: T2, bHLHZip domain of human MYCN (380–464) (Homo sapiens, UniProt P04198); experiment: Surface plasmon resonance binding to bHLHZip of MYCN; conditions: SPR, 25°C, steady state, mean ± SD
# T2 construct: N-terminally His-tagged bHLHZip c-MYC (353–437) and bHLHZip MYCN (380–464) proteins were over-expressed in E. coli BL21 (DE3); made in house; host or cells: E. coli BL21 (DE3)
# Protocol: as §1, §2
# N-terminally His-tagged bHLHZip c-MYC (353–437) and bHLHZip MYCN (380–464) proteins were over-expressed in E. coli BL21 (DE3) bacteria (Stratagene) at 37°C in LB media with kanamycin. Cultures were induced with Isopropyl β-D-1-thiogalactopyranoside (0,1 mg/ml) at an OD of 0.6 and harvested after 4 hours. After sonication of the proteins in 50 mM NaH2PO4, 100 mM NaCl and 10 mM Tris-HCl (pH = 8,0) for 6×30 seconds, the pellet was resuspended in 100 mM NaH2PO4, 10 mM Tris-HCl, 10 mM imidazole and 8 M urea (pH = 8,0) prior to additional sonication for 6×30 seconds. The proteins were then loaded onto a Ni-Sepahrose High Performance His-Trap column (GE Healthcare), washed with ten column volumes of 100 mM NaH2PO4, 10 mM Tris-HCl, 40 mM imidazole and 8 M urea (pH = 8,0) and finally eluted with two column volumes 100 mM NaH2PO4, 10 mM Tris-HCl, 500 mM imidazole and 8 M urea (pH = 8,0). Fractions without visible higher molecular mass contaminations, as judged by SDS-page, were pooled and refolded by dialysis in 50 mM NaH2PO4, 100 mM NaCl, 10 mM Tris-HCl (pH = 8,0), 5 mM EDTA, 2 mM DTT and decreasing concentrations of urea (6 M, 4 M, 2 M and 0 M). […] Protein concentrations were determined by SDS-page comparing purified proteins to a standard curve of BSA loaded on the gel.
# as §3
# [3] = target: T3, MYCN/MAX interaction (Homo sapiens, UniProt P04198); experiment: Proximity ligation assay (PLA) for MYCN/MAX interaction in SMS-KCN69n cells; assay type: cell-based; conditions: for effect on MYCN/MAX interaction (PLA): 6 hours treatment, compared to DMSO
# T3 construct: endogenous in cells; host or cells: SMS-KCN69n (human MYCN-amplified neuroblastoma)
# T3 sequence (P04198 1-464): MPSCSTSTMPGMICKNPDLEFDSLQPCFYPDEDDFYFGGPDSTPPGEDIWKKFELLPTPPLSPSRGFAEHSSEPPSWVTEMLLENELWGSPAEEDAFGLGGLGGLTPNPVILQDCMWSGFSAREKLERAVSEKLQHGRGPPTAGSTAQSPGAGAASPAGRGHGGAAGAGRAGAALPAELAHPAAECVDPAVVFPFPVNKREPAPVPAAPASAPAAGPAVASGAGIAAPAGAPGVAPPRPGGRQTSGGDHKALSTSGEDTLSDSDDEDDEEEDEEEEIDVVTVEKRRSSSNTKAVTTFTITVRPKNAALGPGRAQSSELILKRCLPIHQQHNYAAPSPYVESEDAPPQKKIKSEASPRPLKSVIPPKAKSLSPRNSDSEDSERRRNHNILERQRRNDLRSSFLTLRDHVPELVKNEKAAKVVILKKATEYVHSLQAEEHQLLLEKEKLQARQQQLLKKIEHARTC
# Excerpt: To investigate if the other small molecules also have an effect on MYCN/MAX dimerization we performed a proximity ligation assay (PLA) using MYCN-amplified SMS-KCN69n NB cells. […] No signal was detected in any of the experimental negative controls (Figure S4).
# Figure 3 Reduction of MYCN/MAX interaction in NB cells after treatment with small molecules. A) Proximity ligation assay (PLA) for MYCN/MAX interaction after treatment of SMS-KCN69n cells with the different small molecules at the indicated concentrations for 6 hours. […] DNA is stained with DAPI. Scale bar: […]. The pictures are representative from three independent experiments. B) Quantification of the PLA signals per cell after treatment with the different compounds. Error bars indicate standard error of the mean.
# 40×10^3 SMS-KCN69n cells were seeded on collagen coated coverslips and grown for 24 hours and treated for 6 hours the next day. After 6 hours the cells were washed in PBS and treated as previously described. The PLA assay was performed after manufacturer's instructions with the Duolink kit (Olink, Uppsala, Sweden). The cells were incubated with primary antibody against MYCN (NCMII100, St Cruz Bio) 1∶500 and Max (C-17, St Cruz Bio) 1∶500 for 1 hour in a humidity chamber at 37°C, which were diluted in antibody diluent provided by the manufacturer. MYCN (1∶500) and FAS (A-20, St Cruz Bio) 1∶500 as well as MAX (1∶500) and GFP (C-2, St Cruz Bio) 1∶500 antibodies were used in combination in order to test for any unspecific binding of the secondary antibodies or unspecific signals. […]
# The confocal images of the cells were acquired at 63× magnification using a motorized axiovert fluorescence microscope 200 M LCI (Zeiss GmBH, Göttingen, Germany) including a CSU10 Yokogawa head; a multilens/multipinhole array aperture (Yokogawa, Japan), an ORCA ER cold CCD camera; detector array 1344×1024px (Hammamatsu, Japan) and two continuous wave diode-pumped solid-state (DPSS) lasers for fluorescence excitation (Cobolt, Sweden); Cobolt Calypso 491 nm DPSS (excitation of green PLA fluorophore) and Cobolt Jive 561 nm DPSS (excitation of Alexa Fluor 568). […] A total amount of at least 120 cells were analyzed for all compounds. The PLA signals were analyzed using the open source image analysis program Image J (NIH, Bethseda, USA) and the amount of PLA signal per cell was calculated. Two persons analyzed the images independently in a blind fashion.
# In order to quantify the PLA signal from the total z-depth of each cell confocal z-stacks was projected in z and identically processed regarding background subtraction. The PLA signal was then quantified blindly and automatically using a find maxima-based algorithm in ImageJ (plugin routine developed by Dr. E. Flaberg and Professor L. Szekely, KI and available upon request). […]
# [4] = test system: MYCN protein levels; experiment: Western blot of MYCN protein levels in SK-N-BE(2) cells; assay type: cell-based, human; conditions: 48 hours
# Protocol: In order to determine the effect of the other compounds analyzed in this study on the MYCN protein levels, SK-N-BE(2) NB cells were treated with as a high concentration of each compound as possible without resulting in excessive cell death. […] Membranes were probed with antibodies recognizing MYCN and GAPDH. The blots are representative from three independent experiments. Whole cell extracts were prepared and lysed using RIPA-buffer. Western blot analysis was performed as previously described. In brief, membranes were probed with a mouse anti-MYCN antibody (B8.4.B, St Cruz Bio), MAX antibody (C-2, St Cruz Bio) and an HRP-conjugated anti-mouse antibody (DAKO) was used as secondary antibody. The membranes were developed using enhanced chemiluminescence substrate (ECL, Amersham).
# [5] = test system: Kelly cells; experiment: Crystal violet growth inhibition assay in Kelly cells; assay type: cell-based, human; conditions: 48 h treatment
# Excerpt: Error bars indicate standard deviation. […] Error bars indicate standard deviation.
# [6] = test system: Tet21N cells; experiment: Apoptosis in Tet21N cells with doxycycline regulated MYCN expression; assay type: cell-based, human; conditions: 48 hour treatment
# Excerpt: GAPDH was used as loading control. […] Error bars indicate standard error. (TIF) Click here for additional data file.
# [7] = test system: xenograft models of prostate cancer; conditions: cited from earlier work
# [8] = test system: TH-MYCN transgenic mice; parameters: method as in PMID 23733953; conditions: cited from earlier work
# [9] = test system: NB xenografts; parameters: method as in PMID 23733953; conditions: cited from earlier work
# [10] = test system: SK-N-BE(2) cells; experiment: Apoptosis, propidium iodide sub G1 DNA content, SK-N-BE(2); assay type: cell-based, human
# Protocol: (§4) Figure 5 Growth inhibition and apoptosis induction in MYCN amplified cells. (A) The amount of viable of cells was determined using crystal violet assay following 48 hours treatment of Kelly cells with increasing concentration of the indicated compound. Data are shown as percent of control (DMSO) treated cells and represent the mean of three independent experiments. Error bars indicate standard deviation. (B) Pearson's correlation between the IC50 values in the growth inhibition assay (A, Table 2) and the KD values for binding to MYCN (Table 1). (C–D) Quantification of apoptosis by propidium iodide staining for sub G1 DNA content of SK-N-BE(2) (C) and Kelly (D) cells. Data represent the means of at least three independent experiments. Error bars indicate standard deviation. We next investigated the level of apoptosis induction in response to treatment with the molecules using two different MNA NB cell lines (Figure 5C, D). […] To verify the MYCN specificity in apoptosis induction, we next used Tet21N NB cells with doxycycline regulated MYCN expression. […] Small molecule-induced apoptosis was scored by quantifying the sub-G0/G1 fraction of the cell cycle. […] Cells were stained with propidium iodide solution (5 µg/ml propidium iodide and 25 µg/ml RNase A in PBS) for 30 min at 37°C and analyzed in a FACScan flow cytometer (Becton Dickinson). […]
# [11] = test system: Kelly cells; experiment: Apoptosis, propidium iodide sub G1 DNA content, Kelly; assay type: cell-based, human
# Protocol: as §4
# [12] = test system: SK-N-BE(2) cells; experiment: Neuronal differentiation of NB cells (neurite outgrowth); assay type: cell-based, human; conditions: sub-lethal concentrations, 14-15 days
# Protocol: SK-N-BE(2) cells were grown for 15 days in 6 well-plates and treated twice per week with DMSO or compound, with and without NGF. Differentiation was assessed based on number and length of neuronal outgrowths using a phase contrast microscope (Axiovert 40 CFL, Zeiss) and the Axiovision Rel. 4.8 software.
# Phase contrast micrographs show representative pictures from one out of 3 to 5 independent experiments.
# [13] = test system: SK-N-BE(2) cells; experiment: Oil Red O staining of lipids; assay type: cell-based, human; conditions: sub-lethal concentrations, 3 days
# Protocol: To explore the effect on lipid accumulation of the small molecules studied here cells were treated with sub-lethal concentrations of the compounds and stained with Oil Red O in order to detect lipids.
# SK-N-BE(2) cells grown on cover slips were fixed in 4% PFA, washed in PBS and then in 60% isopropanol before staining with filtered Oil Red O solution (2 mg/ml) in 60% isopropanol. Cells were washed briefly in distilled water and mounted onto glass slides using water-soluble mounting medium (Aqua Pertex, Histolab products AB). For visualization, bright field images were captured at 40X magnification using an Axiovert 40 CFL inverted fluorescence microscope (Zeiss) and Axiovision Rel. 4.8 software.
# [14] = Solubility in aqueous buffers (SPR running buffer); assay type: physicochemical; conditions: could not be analyzed at concentrations above 50 µM
# Protocol: as §1
# [15] = test system: Burkitt's lymphoma cell line xenograft; parameters: method as in PMID 20801893; conditions: cited from earlier work
# T1 sequence (P01106 368-452): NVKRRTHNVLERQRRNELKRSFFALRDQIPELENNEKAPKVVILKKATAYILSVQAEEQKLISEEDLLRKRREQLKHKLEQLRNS
Kd [1] [µM],SMILES,Kd [2] [µM],effect on MYCN/MAX interaction (PLA) at 112.5 µM ([3]; 112.5 µM),effect on MYCN/MAX interaction (PLA) [3],effect on MYCN protein levels [4],IC50 [5] [µM],apoptosis induction in cells with high vs low MYCN [6],antitumor activity in prostate cancer xenografts [7],survival of TH-MYCN transgenic mice [8],anti-tumor effects in NB xenografts [9],apoptosis (cell death) induction relative to 10058-F4 [10],apoptosis (cell death) induction relative to 10058-F4 [11],morphological neuronal differentiation [12],lipid droplet accumulation [13],solubility in aqueous buffers [14],antitumor activity in Burkitt's lymphoma xenograft [15]
82.3,CCc1ccc(C=C2SC(=O)NC2=O)cc1 [C-m/z 232],87.1,not able to effect the MYCN/MAX interaction,did not affect MYCN/MAX dimer formation,,,,,,,,,,,,
,"CCc1ccc(C=C2SC(=S)NC2=O)cc1 [Compound 10058-F4, [Z,E]-5-[4-ethylbenzylidine]-2-thioxothiazolidin-4-one]",41.9,,reduced the MYCN/MAX interaction,able to efficiently decrease the MYCN protein levels,41.1,cells with low MYCN-levels were less sensitive,no significant antitumor activity,increased the survival,showed anti-tumor effects,,,,,,
,O=[N+]([O-])c1ccc(Nc2ccccc2-c2ccccc2)c2nonc12 [Compound 10074-G5],19.2,,reduced the MYCN/MAX interaction,decreased the MYCN protein levels at lower concentrations than 10058-F4,22.5,MYCN dependent induction of apoptosis,,,,more potent than 10058-F4 in inducing cell death,more potent than 10058-F4 in inducing cell death,evident neurite outgrowth,smaller but more numerous lipid droplets,especially poor solubility in aqueous buffers,failed to show any antitumor activity

# Reference: publication PMC4032254, “Targeting of the MYCN Protein with Small Molecule c-MYC Inhibitors” (PLoS ONE, 2014)
